Results taken from patent US12514806B2, “Cosmetic composition comprising ceramides and sphingolipid” (Croda Korea Ltd, priority 2022, dated 2026).

Experiments:
Assay type in all cases: cell-based
aquaporin 3 = assay: Aquaporin 3 expression in 3D skin model by immunofluorescence; details: Experimental Example 4; creams including 0.01% and 0.1% of EOP on 3D skin model; compared to control; concentration-dependent; FIGS. 11-12
Experimental: (§1) To verify the difference in skin moisturizing according to a ceramide content ratio, each of the creams of Examples 1 to 16 was applied to 3D skin model (EPI-201) manufactured by MatTek, and then the expression of aquaporin 3 and filaggrin was examined.
(§2) Aquaporin 3 expression and filaggrin expression were analyzed by immunofluorescence. Specifically, after the 3D skin model was treated with each of the creams of Examples 1 to 16, the 3D skin model was incubated for 48 hours, and then each cream was washed out with PBS. The 3D skin model was put into a cassette and fixed with 10% formalin, and then made into a paraffin block through dehydration, transparency, penetration, and embedding processes. For deparaffinization, slides were prepared by sectioning to 3 μm, and then paraffin was melted in a dry oven at 60° C. for 30 minutes. […] After DAPI mounting, the slides were observed using a fluorescence microscope, and the results thereof are illustrated in FIGS. 1 to 4. […]
(§3) The moisturizing and barrier factors were analyzed by immunofluorescence in the same manner as in Experimental Example 1, and the results thereof are illustrated in FIGS. 11 and 12. […]
(§4) The moisturizing factors were analyzed by immunofluorescence in the same manner as in Experimental Example 1, and the results thereof are illustrated in FIGS. 15 to 18.

filaggrin = assay: Filaggrin expression in 3D skin model by immunofluorescence; details: Experimental Example 4; creams including 0.01% and 0.1% of EOP on 3D skin model; compared to control; concentration-dependent; FIGS. 11-12
Experimental: as §1, §2, §3, §4

ceramide = assay: Amount of ceramide in 3D skin model by immunofluorescence; details: Experimental Example 4; creams including 0.01% and 0.1% of EOP on 3D skin model; compared to control; FIGS. 11-12
Experimental: as §2, with “minutes. Then, the slides were treated with xylene for 15 minutes, 100% ethanol for 5 minutes, 95% ethanol for 5 minutes, and 70% ethanol for 5 minutes, and washed with tap water. Antigen retrieval was carried out by boiling for 10 minutes in citrate buffer in a cooker, followed by cooling in running water. After treatment with 0.5% Triton X-100 for 15 minutes, the slides were washed three times with PBS buffer for 5 minutes.” for “minutes.”
The moisturizing and barrier factors were analyzed by immunofluorescence in the same manner as in Experimental Example 1, and the results thereof are illustrated in FIGS. 11 and 12.

ceramide EOP
increased: amount of aquaporin 3 (aquaporin 3) | amount of filaggrin (filaggrin) | amount of ceramide (ceramide)
